The source of these data is patent US11390625B2, “Aryl-phosphorus-oxygen compound as EGFR kinase inhibitor” (Chia Tai Tianqing Pharmaceutical Group Co., Ltd., priority 2017, dated 2022).

A value given as a limit tells only on which side of the number the result lay.

The test system of assay [1] is Ba/F3 (Δ19del/T790M/C797S) xenograft. Nature of the assay: In vivo efficacy (1): Ba/F3 (Δ19del/T790M/C797S) subcutaneous xenograft (CDX) in BALB/c nude mice.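 Also: female nude mice, dosing begun at mean tumor size near 80–120 mm^3, tumors measured by caliper twice weekly, volume in mm^3 computed as 0.5×long×short diameter squared.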
Procedure: BALB/c nude mice, female, 6-8 weeks old, 18-20 g of body weight, were housed in SPF-grade environment, and each cage was individually ventilated (5 mice per cage). […] A total of 48 mice purchased from Beijing Weitonglihua company were used for the study. Each mouse was implanted with cells at the right flank, for tumor growth. The experiment was started when the average tumor volume reached approximately 80-120 mm^3. […] Tumor volume was measured twice a week with a two-dimensional caliper, measured in mm^3 and calculated by the following formula: V=0.5a×b^2, wherein a and b are the long and short diameters of the tumor, respectively. Antitumor efficacy was determined by dividing the average increase of the tumor volume of the animals treated with the compound by the average increase of the tumor volume of the untreated animals.
The test system of assay [2] is pEGFR Ba/F3 (EGFR Δ19del/T790M/C797S) cells. Nature of the assay: Cell phosphorylation inhibition experiment, pEGFR Ba/F3 (EGFR Δ19del/T790M/C797S). It counts as cell-based. To be noted: for IC50: Ba/F3 EGFR, Ba/F3 cells, EGF stimulated, read-out: Effect on cellular EGFR phosphorylation Ba/F3(Δ19del/T790M/C797S) IC50. The protocol:
The test compounds and reference compounds were diluted with 100% DMSO to 10 mM or 1 mM, and then a gradient dilution was performed by using Echo, 150 nL per well, with a three-fold concentration gradient and a ten-point dose response curve. The final concentration of the compounds was 100 μM or 10 μM. The suspension cells was centrifuged at 1000 rp for 5 minutes, suspend in Hanks' balanced salt solution, and added to a 384-well plate containing the compounds at 10 L/120K/well (the cell density of 1.2×10^7), followed by centrifugation at 1200 rpm for 30 s and incubation at 37° C. for 30 min. 5 μL of EGF (which has been diluted with 0.1% BSA Hanks' balanced salt solution) was added to each well, in which the final concentration of EGF was 1 μM. The plate was centrifuged at 1200 rpm for 30 s and incubated at 37° C. for 20 min. 5 μL of 4× lysis buffer containing blocking solution was added to each well, and then the plate was centrifuged at 1200 rpm for 30 s, and incubated at 37° C. for 30 min.

Assay [3] relates to Ba/F3 (EGFR Δ19del/T790M/C797S) cells. Nature of the assay: Anti-proliferation experiment on cells (2), Ba/F3 (EGFR Δ19del/T790M/C797S). In kind it is cell-based. As to conditions: for IC50: Ba/F3 EGFR, 72 h, Ba/F3 cells, 3 days, read-out: anti-proliferation effect on cells Ba/F3(Δ19del/T790M/C797S) IC50. As for the experimental part:
The compounds ware transferred to a 384-well plate, with 125 nL of compound per well. […] After 3 days, 25 μL of detection reagent was added. The plate was incubated at room temperature for 10 minutes and then read with Envision.

For assay [4], the target named is EGFR (Δ19del/T790M/C797S) (Homo sapiens, UniProt P00533, C797S/T790M, form not given). Description: Enzyme activity experiment (1): EGFR (Δ19del/T790M/C797S) enzyme inhibition. It counts as biochemical. To be noted: read-out: EGFR (Δ19del/T790M/C797S) IC50. As for the experimental part: 1) 10 μL of the compounds to be tested and reference compounds diluted to 10 mM were taken into an Echo LDV plate, which were diluted according to the compound profile with Echo.
1) 1×enzyme reaction buffer was prepared: 1× enzyme buffer, 5 mM MgCl2, 1 mM DTT (dithiothreitol), water.
2) A mixed solution of 10 nM enzyme (final concentration of 5 nM) and 2 μM substrate (final concentration of 1 μM) and a solution containing the substrate alone were prepared with the diluted enzyme reaction buffer.
3) 5 μL of the substrate was added into A1-H1, J24-P24 (the number of the well position), and 5 μL of the mixture of the enzyme and substrate was added into the remaining wells.
4) Centrifugation was performed at 1000 rpm at 23° C. for 30 s.
5) Incubation was performed at 23° C. for 15 min.
7) Centrifugation was performed at 1000 rpm at 23° C. for 30 s.
8) Incubation was performed at 23° C. for 60 min.
9) 10 μL of 250 nM TK Antibody-Crypate (a final concentration of 125 nM) and 1×D2 (a final concentration ½ time) prepared with Detection buffer were added.
10) Centrifugation was performed at 1000 rpm at 23° C. for 30 s.
11) Incubation was performed at 23° C. for 60 min.
12) The data was read with Envision, and the ratio was calculated to obtain the IC50 of the compound for inhibiting the enzyme activity.

Sequence of EGFR (Δ19del/T790M/C797S) (P00533 25-1210 T790M/C797S limits assumed, form open): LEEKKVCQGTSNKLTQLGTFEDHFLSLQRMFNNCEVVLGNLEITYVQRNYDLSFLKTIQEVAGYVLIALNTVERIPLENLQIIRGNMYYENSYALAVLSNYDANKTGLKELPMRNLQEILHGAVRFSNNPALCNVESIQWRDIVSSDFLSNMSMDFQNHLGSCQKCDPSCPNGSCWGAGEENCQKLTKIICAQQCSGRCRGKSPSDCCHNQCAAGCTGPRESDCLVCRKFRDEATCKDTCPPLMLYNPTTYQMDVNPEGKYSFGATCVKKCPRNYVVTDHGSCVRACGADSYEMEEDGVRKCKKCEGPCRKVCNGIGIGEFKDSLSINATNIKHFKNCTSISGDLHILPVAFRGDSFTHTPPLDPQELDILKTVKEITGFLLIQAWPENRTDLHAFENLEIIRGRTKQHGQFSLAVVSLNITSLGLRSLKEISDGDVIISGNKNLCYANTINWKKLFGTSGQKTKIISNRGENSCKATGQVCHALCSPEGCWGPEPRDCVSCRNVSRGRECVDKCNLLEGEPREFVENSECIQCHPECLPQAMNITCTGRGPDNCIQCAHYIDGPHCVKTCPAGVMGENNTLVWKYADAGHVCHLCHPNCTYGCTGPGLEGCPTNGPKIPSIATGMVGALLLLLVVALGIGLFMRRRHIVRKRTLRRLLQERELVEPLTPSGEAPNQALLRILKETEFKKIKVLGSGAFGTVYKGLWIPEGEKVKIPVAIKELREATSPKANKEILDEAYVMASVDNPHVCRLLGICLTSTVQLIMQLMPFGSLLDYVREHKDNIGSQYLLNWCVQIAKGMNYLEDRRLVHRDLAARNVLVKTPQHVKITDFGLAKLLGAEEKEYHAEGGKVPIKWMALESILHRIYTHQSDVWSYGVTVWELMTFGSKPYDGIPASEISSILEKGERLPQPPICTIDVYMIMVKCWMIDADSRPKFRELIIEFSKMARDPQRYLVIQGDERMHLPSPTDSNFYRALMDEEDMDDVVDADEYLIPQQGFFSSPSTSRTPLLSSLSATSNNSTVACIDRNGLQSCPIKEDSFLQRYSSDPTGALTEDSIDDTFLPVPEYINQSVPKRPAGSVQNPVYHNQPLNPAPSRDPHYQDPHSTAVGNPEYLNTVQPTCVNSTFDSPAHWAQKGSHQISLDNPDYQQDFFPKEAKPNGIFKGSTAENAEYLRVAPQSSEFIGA

`COc1cc(N2CCC(N3CCN(C)CC3)CC2)ccc1Nc1ncc(Cl)c(Nc2ccccc2P(C)(C)=O)n1` [Birgatinib, reference compound]: in assay [1] (15 mg/kg oral daily, 13 consecutive days), the “TGI (the tumor inhibition value)” value is 8.6%. The “Tumor volume Day 0” value in assay [1] (15 mg/kg/day oral, Day 0) is 84 mm^3. For the same compound, in assay [1] (15 mg/kg/day oral, Day 2), the “Tumor volume Day 2” value is recorded as 124 mm^3. In assay [1] (15 mg/kg/day oral, Day 5), the “Tumor volume Day 5” value is recorded as 292 mm^3. Besides, the “Tumor volume Day 8” value in assay [1] (15 mg/kg/day oral, Day 8) is given as 477 mm^3. Besides, the “Tumor volume Day 10” value in assay [1] (15 mg/kg/day oral, Day 10) was 646 mm^3. In addition, in assay [1] (15 mg/kg/day oral, Day 12), the “Tumor volume Day 12” value is on record as 880 mm^3. Further, the “Tumor volume Day 13” value in assay [1] (15 mg/kg/day oral, Day 13) is 965 mm^3.
For `COc1cc(N2CCC(N3CCN(C)CC3)CC2)ccc1Nc1ncc(Cl)c(Nc2ccc3[nH]cnc3c2P(C)(C)=O)n1` [Comparative Example 1, reference compound], the IC50 in assay [2] is 1010 nM; in assay [3], > 5000 nM. The “inhibitory effect on the phosphorylation of Ba/F3 (Δ19del/T790M/C797S) cells” value in assay [2] (in words) is recorded as “almost no inhibitory effect”. The “inhibitory effect on Ba/F3 cells with three mutations (EGFR Δ19del/T790M/C797S)” value in assay [3] (in words) was “almost no inhibitory effect”.
Consider `COc1cc(N2CCC3(CCN(C)CC3)CC2)c(Cl)cc1Nc1ncc(Cl)c(Nc2ccc3sccc3c2P(C)(C)=O)n1` [Compound 1], for which the IC50 in assay [4] was 2.64 nM.
`COc1cc(N2CCC(N3CCN(C)CC3)CC2)ccc1Nc1ncc(Cl)c(Nc2ccc3cccnc3c2P(C)(C)=O)n1` [Compound 7]: the IC50 in assay [2] was determined as 533 nM.
Consider `COc1cc(N2CCC3(CC2)CN(C)C3)c(C)cc1Nc1ncc(Cl)c(Nc2ccc3nccnc3c2P(C)(C)=O)n1` [Compound 8], for which the figures for the IC50 in assay [4], in assay [2] and in assay [3] were 0.792 nM, 133 nM and 275 nM, respectively.
As to `COc1cc(N2CCC3(CCN(C)CC3)CC2)c(Cl)cc1Nc1ncc(Cl)c(Nc2ccc3cccnc3c2P(C)(C)=O)n1` [Compound 10], the IC50 in assay [3] came out at 6030 nM.
Still for that read-out and setting: under `COc1cc(N2CCC(N3CCN(C)CC3)CC2)c(Cl)cc1Nc1ncc(Cl)c(Nc2ccc3ccccc3c2P(C)(C)=O)n1` [Compound 11] stands 180 nM; under `COc1cc(N2CCC3(CCN(C)CC3)CC2)c(Cl)cc1Nc1ncc(Cl)c(Nc2ccc3c(c2P(C)(C)=O)C(=O)CC3)n1` [Compound 14], 351 nM.
Same read-out and setting: the result for `COc1cc(N2CCC3(CC2)CN(C)C3)c(C)cc1Nc1ncc(Cl)c(Nc2ccc3c(ccn3C)c2P(C)(C)=O)n1` [Compound 15] reads 583 nM.
For the compound `COc1cc(N2CCC3(CC2)CN(C)C3)c(C)cc1Nc1ncc(Cl)c(Nc2ccc3c(c2P(C)(C)=O)CCC3)n1` [Compound 16], the IC50 in assay [4] turned out to be 0.491 nM; in assay [3] it was 211 nM.
In the same order, the values of `COc1cc(N2CCC3(CC2)CN(C)C3)c(C)cc1Nc1ncc(OC(=O)N(C)C)c(Nc2ccc3ccccc3c2P(C)(C)=O)n1` [Compound 17] are 856 nM and 4750 nM.
The like results for `COc1ccc(OCCNCc2cnccn2)cc1Nc1ncc(Cl)c(Nc2ccc3ccccc3c2P(C)(C)=O)n1` [Compound 18] were, in that order, 25.3 nM and 1650 nM.
The like results for `COc1ccc(OCCNCc2cccnc2)cc1Nc1ncc(Cl)c(Nc2ccc3ccccc3c2P(C)(C)=O)n1` [Compound 19] were, in that order, 12.9 nM and 1220 nM.
Turning to `COc1cc(N2CCC3(CC2)CN(CCN(C)C)C3)c(C)cc1Nc1ncc(Cl)c(Nc2ccc3ccccc3c2P(C)(C)=O)n1` [Compound 20], the IC50 is < 0.0508 nM in assay [4] and 214 nM in assay [3].
Turning to `COc1cc(N2CCC3(CC2)CN(C)C3)c(C)cc1Nc1nc(Nc2ccc3ccccc3c2P(C)(C)=O)c2cc[nH]c2n1` [Compound 22], in assay [3], the IC50 amounted to 249 nM.
Turning to `COc1cc(N2CCC3(CC2)CN(C)C3)c(C)cc1Nc1ncc(Br)c(Nc2ccc3ccccc3c2P(C)(C)=O)n1` [Compound 23], the IC50 in assay [4] was determined as 0.0517 nM; in assay [2] it was 34 nM; in assay [3], 103 nM.
Turning to `COc1cc(N2CCC3(CC2)CN(C)C3)c(C)cc1Nc1ncc(C(C)=O)c(Nc2ccc3ccccc3c2P(C)(C)=O)n1` [Compound 24], the IC50 in assay [3] was 4080 nM.
As for `COc1cc(N2CCC3(CC2)CN(C)C3)c(C)cc1Nc1ncc(C2CC2)c(Nc2ccc3ccccc3c2P(C)(C)=O)n1` [Compound 25], the results for the IC50 in assay [4] and in assay [3] were 1.79 nM and 642 nM, respectively.
In the same order, the values of `COc1cc(N2CCC3(CC2)CN(C)C3)c(C)cc1Nc1ncc(C#N)c(Nc2ccc3ccccc3c2P(C)(C)=O)n1` [Compound 26] are 0.679 nM and 764 nM.
For the compound `COc1cc(N2CCC3(CC2)CN(C)C3)c(C)cc1Nc1ncc(-c2nnc(C)o2)c(Nc2ccc3ccccc3c2P(C)(C)=O)n1` [Compound 27], the IC50 in assay [3] is 2710 nM.
Take `COc1ccc(OCCNS(C)(=O)=O)cc1Nc1ncc(Cl)c(Nc2ccc3ccccc3c2P(C)(C)=O)n1` [Compound 29]: the results for the IC50 in assay [4] and in assay [3] were 67.6 nM and 1590 nM, respectively.
On to `COc1cc(N2CCC3(CC2)CN(CCO)C3)c(C)cc1Nc1ncc(Cl)c(Nc2ccc3ccccc3c2P(C)(C)=O)n1` [Compound 30], for which, in assay [3], the IC50 is 290 nM.
Still for that read-out and setting: the result for `COc1cc(N2CCC3(CC2)CN(C(C)C)C3)c(C)cc1Nc1ncc(Cl)c(Nc2ccc3sccc3c2P(C)(C)=O)n1` [Compound 31] reads 242 nM.
As to `CCc1cc(Nc2ncc(Br)c(Nc3ccc4ccccc4c3P(C)(C)=O)n2)c(OC)cc1N1CCC2(CC1)CN(C)C2` [Compound 32], the figures for the IC50 in assay [2] and in assay [3] were 57 nM and 79 nM, respectively.
As to `COc1cc(N2CCC3(CC2)CN(C(C)C)C3)c(C)cc1Nc1ncc(Br)c(Nc2ccc3ccccc3c2P(C)(C)=O)n1` [Compound 33], the IC50 in assay [3] amounted to 162 nM.
The same measure, in the same setting: the result for `COc1cc(N2CCC(N3CCN(C)CC3)CC2)ccc1Nc1ncc(Cl)c(Nc2ccc3c(c2P(C)(C)=O)CCC3)n1` [Compound 35] reads 533 nM; that for `COc1cc(N2CCC(N3CCN(C)CC3)CC2)ccc1Nc1ncc(Br)c(Nc2ccc3c(c2P(C)(C)=O)CCC3)n1` [Compound 38], 371 nM.
Take `COc1cc(N2CCC3(CC2)CN(CCN(C)C)C3)c(C)cc1Nc1ncc(Cl)c(Nc2ccc3nccnc3c2P(C)(C)=O)n1` [Compound 39]: the IC50 in assay [2] is 195 nM; in assay [3], 187 nM.
As to `COc1cc(N2CCC(N3CCN(C)CC3)CC2)ccc1Nc1ncc(Cl)c(Nc2ccc3scnc3c2P(C)(C)=O)n1` [Compound 42], in assay [3], the IC50 was found to be 442 nM.
Same read-out and setting: the result for `COc1cc(N2CCC(N3CCN(C)CC3)CC2)ccc1Nc1ncc(Cl)c(Nc2ccc3cccnc3c2P(C)(C)=O)n1` [Compound 43] reads 496 nM.
As for `COc1cc(N2CCC(N(C)C)CC2)c(C)cc1Nc1ncc(Br)c(Nc2ccc3nccnc3c2P(C)(C)=O)n1` [Compound 44], the IC50 in assay [2] was 9 nM.
`COc1cc(N2CCN(C)CC2)c(C)cc1Nc1ncc(Br)c(Nc2ccc3nccnc3c2P(C)(C)=O)n1` [Example 45]: the values for the IC50 in assay [2] and in assay [3] were 27 nM and 87 nM, respectively.
For `COc1cc(N2CCC(N3CCN(C)CC3)CC2)c(C)cc1Nc1ncc(C)c(Nc2ccc3nccnc3c2P(C)(C)=O)n1` [Example 48], the IC50 in assay [3] amounted to 152 nM.
Turning to `COc1cc(N2CCC(N3CCN(C)CC3)CC2)c(C)cc1Nc1ncc(Br)c(Nc2ccc3scnc3c2P(C)(C)=O)n1` [Example 51], in assay [3], the IC50 amounted to 36 nM.
On the same count and under the same terms, the result for `COc1cc(N2CCC(N3CCN(C)CC3)CC2)c(Cl)cc1Nc1ncc(Br)c(Nc2ccc3nccnc3c2P(C)(C)=O)n1` [Example 54] reads 39 nM; that for `COc1cc(N2CCC3(CCN(C)CC3)CC2)c(C)cc1Nc1ncc(Br)c(Nc2ccc3nccnc3c2P(C)(C)=O)n1` [Example 57], 26.8 nM; that for `CCc1cc(Nc2ncc(Br)c(Nc3ccc4nccnc4c3P(C)(C)=O)n2)c(OC)cc1N1CCC2(CCN(C)CC2)CC1` [Example 58], 18.6 nM.
